The NIST ThermoML archive (doi:10.1016/j.jct.2016.12.020)
± gives the expanded uncertainty stated by the source.

Test: excess molar enthalpy (molar enthalpy of mixing); xn = mol fraction of the nth substance listed
Conditions: 100 kPa, Liquid, Calvet calorimetry

[Au] [gold] + [Ga]
excess molar enthalpy [kcal/mol]
Conditions	1223 K	1323 K
x1 = 0.03042	-0.3007 ± 0.00263	–
x1 = 0.03979	–	-0.4015 ± 0.00335
x1 = 0.0642	-0.6272 ± 0.00502	–
x1 = 0.07894	–	-0.7875 ± 0.00621
x1 = 0.09685	-0.9732 ± 0.00765	–
x1 = 0.116	–	-1.149 ± 0.00908
x1 = 0.1281	-1.308 ± 0.0103	–
x1 = 0.1512	–	-1.492 ± 0.0117
x1 = 0.1606	-1.622 ± 0.0127	–
x1 = 0.1843	–	-1.794 ± 0.0141
x1 = 0.1915	-1.907 ± 0.0151	–
x1 = 0.2172	–	-2.085 ± 0.0163
x1 = 0.2205	-2.139 ± 0.0167	–
x1 = 0.2492	-2.37 ± 0.0186	-2.366 ± 0.0184
x1 = 0.2762	-2.589 ± 0.0203	–
x1 = 0.2785	–	-2.596 ± 0.0203
x1 = 0.3018	-2.787 ± 0.0217	–
x1 = 0.3074	–	-2.819 ± 0.022
x1 = 0.3274	-2.98 ± 0.0232	–
x1 = 0.3345	–	-3.014 ± 0.0234
x1 = 0.3516	-3.153 ± 0.0239	–
x1 = 0.3597	–	-3.179 ± 0.0239
x1 = 0.3741	-3.296 ± 0.0263	–
x1 = 0.3836	–	-3.319 ± 0.0263
x1 = 0.3958	-3.404 ± 0.0263	–
x1 = 0.4061	–	-3.431 ± 0.0287
x1 = 0.4164	-3.509 ± 0.0287	–
x1 = 0.4283	–	-3.53 ± 0.0287
x1 = 0.4363	-3.587 ± 0.0287	–
x1 = 0.449	–	-3.615 ± 0.0311
x1 = 0.4553	-3.665 ± 0.0311	–
x1 = 0.4692	–	-3.695 ± 0.0335
x1 = 0.4737	-3.733 ± 0.0311	–
x1 = 0.4871	-3.783 ± 0.0335	–
x1 = 0.4882	–	-3.752 ± 0.0359
x1 = 0.4991	–	-3.797 ± 0.0359
x1 = 0.5003	-3.814 ± 0.0335	–
x1 = 0.5096	–	-3.825 ± 0.0382
x1 = 0.5139	-3.826 ± 0.0359	–
x1 = 0.5203	–	-3.85 ± 0.0406
x1 = 0.527	-3.839 ± 0.0382	–
x1 = 0.5307	–	-3.87 ± 0.0406
x1 = 0.5395	-3.851 ± 0.0382	–
x1 = 0.5412	–	-3.88 ± 0.043
x1 = 0.5514	–	-3.89 ± 0.0454
x1 = 0.5515	-3.86 ± 0.0406	–
x1 = 0.5621	–	-3.89 ± 0.0454
x1 = 0.5631	-3.88 ± 0.0406	–
x1 = 0.5727	–	-3.9 ± 0.0478
x1 = 0.5743	-3.88 ± 0.043	–
x1 = 0.5829	–	-3.9 ± 0.0502
x1 = 0.585	-3.88 ± 0.0454	–
x1 = 0.5927	–	-3.89 ± 0.0526
x1 = 0.5953	-3.88 ± 0.0478	–
x1 = 0.6028	–	-3.88 ± 0.055
x1 = 0.6053	-3.88 ± 0.0478	–
x1 = 0.6129	–	-3.87 ± 0.055
x1 = 0.6147	-3.88 ± 0.0502	–
x1 = 0.6231	–	-3.84 ± 0.0574
x1 = 0.6239	-3.87 ± 0.0526	–
x1 = 0.6306	-3.86 ± 0.0526	–
x1 = 0.637	-3.85 ± 0.055	–
x1 = 0.6431	-3.83 ± 0.055	–

[Ag] [silver] + [Ga]
Conditions	excess molar enthalpy [kcal/mol]
1223 K, x1 = 0.04915	0.0514 ± 0.00717
1223 K, x1 = 0.0956	0.0619 ± 0.0129
1223 K, x1 = 0.1383	0.0729 ± 0.0186
1223 K, x1 = 0.1792	0.0681 ± 0.0239
1223 K, x1 = 0.2178	0.0629 ± 0.0287
1223 K, x1 = 0.2552	0.0301 ± 0.0335
1223 K, x1 = 0.2905	-0.00215
1223 K, x1 = 0.3228	-0.0502 ± 0.0406
1223 K, x1 = 0.3528	-0.0958 ± 0.043
1223 K, x1 = 0.3809	-0.14 ± 0.0454
1223 K, x1 = 0.4081	-0.193 ± 0.0502
1223 K, x1 = 0.4336	-0.252 ± 0.0526
1223 K, x1 = 0.4572	-0.308 ± 0.0526
1223 K, x1 = 0.4789	-0.346 ± 0.055
1223 K, x1 = 0.4992	-0.389 ± 0.0574
1223 K, x1 = 0.5189	-0.447 ± 0.0598
1223 K, x1 = 0.5372	-0.494 ± 0.0621
1223 K, x1 = 0.5548	-0.535 ± 0.0645
1223 K, x1 = 0.5712	-0.574 ± 0.0645
1323 K, x1 = 0.05283	0.0533 ± 0.00765
1323 K, x1 = 0.1006	0.0992 ± 0.0143
1323 K, x1 = 0.1464	0.112 ± 0.0206
1323 K, x1 = 0.1894	0.107 ± 0.0263
1323 K, x1 = 0.2288	0.0978 ± 0.0311
1323 K, x1 = 0.2649	0.0846 ± 0.0359
1323 K, x1 = 0.2996	0.0519 ± 0.0406
1323 K, x1 = 0.3321	0.00598 ± 0.043
1323 K, x1 = 0.3634	-0.0519 ± 0.0478
1323 K, x1 = 0.3921	-0.0949 ± 0.0502
1323 K, x1 = 0.4189	-0.144 ± 0.0526
1323 K, x1 = 0.4443	-0.198 ± 0.055
1323 K, x1 = 0.4687	-0.227 ± 0.0574
1323 K, x1 = 0.4964	-0.274 ± 0.0621
1323 K, x1 = 0.5168	-0.312 ± 0.0621
1323 K, x1 = 0.5359	-0.344 ± 0.0645
1323 K, x1 = 0.5558	-0.386 ± 0.0669
